Source: ChEMBL document CHEMBL3991601, “The target landscape of clinical kinase drugs” (Science, 2017)
The source made the active and inactive calls. Cut-off read from the data, not from the text of the source, for most assays here: actives have a measured Kd and inactives only a lower limit.

Assays:
Ephrin type-B receptor 2 = biological target: T1, Ephrin type-B receptor 2 (Homo sapiens, UniProt P29323)
T1 sequence (P29323 whole entry): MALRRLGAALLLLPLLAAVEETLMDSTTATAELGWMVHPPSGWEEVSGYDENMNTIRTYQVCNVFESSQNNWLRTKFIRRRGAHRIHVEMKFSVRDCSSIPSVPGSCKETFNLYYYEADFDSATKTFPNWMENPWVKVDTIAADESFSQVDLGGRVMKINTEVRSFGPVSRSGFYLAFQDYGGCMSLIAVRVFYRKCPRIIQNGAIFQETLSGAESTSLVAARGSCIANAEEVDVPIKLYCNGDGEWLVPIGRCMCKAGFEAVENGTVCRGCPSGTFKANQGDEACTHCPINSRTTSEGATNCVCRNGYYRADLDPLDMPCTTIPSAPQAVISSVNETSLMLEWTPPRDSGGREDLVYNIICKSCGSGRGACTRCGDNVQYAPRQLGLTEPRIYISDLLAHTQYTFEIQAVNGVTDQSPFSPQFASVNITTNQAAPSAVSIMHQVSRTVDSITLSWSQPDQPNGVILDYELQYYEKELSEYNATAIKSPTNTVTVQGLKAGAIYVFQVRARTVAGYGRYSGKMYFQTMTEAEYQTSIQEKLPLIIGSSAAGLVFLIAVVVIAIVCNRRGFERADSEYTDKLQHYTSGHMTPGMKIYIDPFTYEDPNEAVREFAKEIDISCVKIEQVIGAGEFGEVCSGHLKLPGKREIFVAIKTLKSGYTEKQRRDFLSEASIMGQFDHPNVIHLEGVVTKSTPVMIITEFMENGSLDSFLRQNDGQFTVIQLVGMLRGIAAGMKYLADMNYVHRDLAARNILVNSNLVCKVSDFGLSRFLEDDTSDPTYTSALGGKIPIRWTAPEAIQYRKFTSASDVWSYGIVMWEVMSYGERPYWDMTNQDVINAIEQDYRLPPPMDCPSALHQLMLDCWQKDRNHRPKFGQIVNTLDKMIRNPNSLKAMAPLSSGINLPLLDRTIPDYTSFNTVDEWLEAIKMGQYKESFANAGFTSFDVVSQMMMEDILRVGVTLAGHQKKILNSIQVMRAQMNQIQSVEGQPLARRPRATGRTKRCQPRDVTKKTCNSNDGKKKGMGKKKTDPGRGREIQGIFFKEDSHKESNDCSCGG

[1] = biological target: T2, Structural maintenance of chromosomes protein 1A (Homo sapiens, UniProt Q14683)
T2 sequence (Q14683 whole entry): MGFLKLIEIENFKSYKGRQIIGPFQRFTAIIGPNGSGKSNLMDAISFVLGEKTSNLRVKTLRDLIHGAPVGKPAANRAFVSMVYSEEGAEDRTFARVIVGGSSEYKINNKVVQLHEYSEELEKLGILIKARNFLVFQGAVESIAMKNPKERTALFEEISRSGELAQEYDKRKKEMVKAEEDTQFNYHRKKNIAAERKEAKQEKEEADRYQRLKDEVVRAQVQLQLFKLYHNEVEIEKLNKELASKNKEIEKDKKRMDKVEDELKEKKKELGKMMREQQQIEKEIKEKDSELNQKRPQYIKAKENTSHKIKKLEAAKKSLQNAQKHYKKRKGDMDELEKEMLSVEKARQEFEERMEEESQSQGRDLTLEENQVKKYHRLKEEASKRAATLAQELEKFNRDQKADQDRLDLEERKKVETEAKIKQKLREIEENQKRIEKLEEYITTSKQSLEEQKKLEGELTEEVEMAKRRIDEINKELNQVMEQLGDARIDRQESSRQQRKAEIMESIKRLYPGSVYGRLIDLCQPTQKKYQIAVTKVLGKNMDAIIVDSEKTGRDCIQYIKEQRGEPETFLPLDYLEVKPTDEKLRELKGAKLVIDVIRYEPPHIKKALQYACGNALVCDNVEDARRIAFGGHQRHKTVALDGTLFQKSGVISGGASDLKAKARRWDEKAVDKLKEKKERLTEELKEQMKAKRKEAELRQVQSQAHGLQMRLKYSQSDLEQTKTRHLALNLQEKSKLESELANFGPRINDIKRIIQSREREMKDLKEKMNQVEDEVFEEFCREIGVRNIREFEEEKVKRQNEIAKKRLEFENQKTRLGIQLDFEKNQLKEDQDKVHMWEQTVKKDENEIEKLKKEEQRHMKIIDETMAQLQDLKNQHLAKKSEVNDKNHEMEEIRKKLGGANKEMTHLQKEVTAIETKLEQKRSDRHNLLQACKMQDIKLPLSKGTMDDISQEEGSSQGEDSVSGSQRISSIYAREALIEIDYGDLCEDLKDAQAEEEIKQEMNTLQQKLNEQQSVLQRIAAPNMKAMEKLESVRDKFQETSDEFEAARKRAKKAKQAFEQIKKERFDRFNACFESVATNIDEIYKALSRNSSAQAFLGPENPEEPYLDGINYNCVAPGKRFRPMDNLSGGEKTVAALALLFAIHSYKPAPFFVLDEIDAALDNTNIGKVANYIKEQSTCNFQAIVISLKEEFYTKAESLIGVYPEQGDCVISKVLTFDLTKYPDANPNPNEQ

[2] = biological target: T3, Calcium/calmodulin-dependent protein kinase type IV (Homo sapiens, UniProt Q16566)
T3 sequence (Q16566 whole entry): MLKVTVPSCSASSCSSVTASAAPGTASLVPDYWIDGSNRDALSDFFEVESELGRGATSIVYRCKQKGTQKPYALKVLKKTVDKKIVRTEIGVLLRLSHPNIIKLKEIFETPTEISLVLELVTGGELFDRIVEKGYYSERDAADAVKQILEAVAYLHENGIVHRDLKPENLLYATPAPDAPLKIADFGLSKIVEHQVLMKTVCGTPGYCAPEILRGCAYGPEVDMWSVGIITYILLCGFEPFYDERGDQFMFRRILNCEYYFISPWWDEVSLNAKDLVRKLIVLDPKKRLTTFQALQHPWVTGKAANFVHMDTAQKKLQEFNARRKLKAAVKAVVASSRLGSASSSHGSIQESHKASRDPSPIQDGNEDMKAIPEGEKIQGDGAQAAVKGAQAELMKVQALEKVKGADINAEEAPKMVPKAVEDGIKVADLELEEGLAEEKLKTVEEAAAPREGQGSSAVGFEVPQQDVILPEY
Note: in the data inactive means no Kd found up to 30 µM.

| Structure (SMILES) | Kd (Ephrin type-B receptor 2) | Kd [1] | Kd [2] |
| --- | --- | --- | --- |
| O=C(Cc1ccc(-c2ccc(OCCN3CCOCC3)cc2)cn1)NCc1ccccc1 [TIRBANIBULIN] | > 30 µM (inactive) | > 30 µM (inactive) | > 30 µM (inactive) |
| O=C1NC(=O)[C@@H](c2cn3c4c(cccc24)CCC3)[C@@H]1c1c[nH]c2ccccc12 [TIVANTINIB] | > 30 µM (inactive) | > 30 µM (inactive) | > 30 µM (inactive) |
| C[C@@H](NC(=O)c1ncnc(N)c1Cl)c1ncc(C(=O)Nc2cc(C(F)(F)F)c(Cl)cn2)s1 [TOVORAFENIB] | > 30 µM (inactive) | > 30 µM (inactive) | > 30 µM (inactive) |
| Cc1cc(Nc2ncnc3ccc(NC4=NC(C)(C)CO4)cc23)ccc1Oc1ccn2ncnc2c1 [TUCATINIB] | > 30 µM (inactive) | > 30 µM (inactive) | > 30 µM (inactive) |
| CC(C)c1cc(CNc2nc(Nc3cc(C4CC4)[nH]n3)cc(N3CCN(C)CC3)n2)on1 [XL-228] | 2.51 µM (active) | > 30 µM (inactive) | > 30 µM (inactive) |
| C[C@@H](N)c1ccc(C(=O)Nc2ccnc3[nH]ccc23)cc1 [Y-39983] | > 30 µM (inactive) | > 30 µM (inactive) | > 30 µM (inactive) |
| CN1C/C=C/CCOc2cccc(c2)-c2ccnc(n2)Nc2cccc(c2)C1 [ZOTIRACICLIB] | > 30 µM (inactive) | > 30 µM (inactive) | > 30 µM (inactive) |
